In the supplement of paper PMC4862054:

Tests used:
Details in all cases: incubation time: 72 h
CAL-85-1 [1] = assay: normalised viability (% of control), CellTiter-Blue; higher = more viable cells (100 = DMSO, 0 = benzethonium chloride kill control)
Outline: (§1)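 Normalised viability is given for a single listed concentration of the series. In 384-well plates, breast cancer cell lines were incubated 72 h with compound, then read with CellTiter-Blue (2 h, 37 °C) at 560/590 nm. Per-plate scaling set vehicle to 100 and a positive kill control to 0, with Z'-factor quality control.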

MFM-223 [2] = assay: as above
Outline: as §1

MDA-MB-231 [3] = assay: as above
Outline: as §1

Hs578T [4] = assay: as above
Outline: as §1

MDA-MB-453 [5] = assay: as above
Outline: as §1

CAL-148 [6] = assay: as above
Outline: as §1

SK-BR-3 [7] = assay: as above
Outline: as §1

MDA-MB-468 [8] = assay: as above
Outline: as §1

HCC1143 [9] = assay: as above
Outline: as §1

HCC1937 [10] = assay: as above
Outline: as §1

MDA-MB-436 [11] = assay: as above
Outline: as §1

BT-474 [12] = assay: as above
Outline: as §1

DU-4475 [13] = assay: as above
Outline: as §1

HCC1599 [14] = assay: as above
Outline: as §1

BT-549 [15] = assay: as above
Outline: as §1

HDQ-P1 [16] = assay: as above
Outline: as §1

CAL-120 [17] = assay: as above
Outline: as §1

CAL-51 [18] = assay: as above
Outline: as §1

CAL-85-1 [19] = assay: normalised response (% of control), CellTiter-Glo; higher = more viable cells (100 = DMSO, 0 = benzethonium chloride kill control)
Outline: (§2)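 Compound was dispensed into 384-well plates at 5 concentrations in 10-fold steps spanning a 10,000-fold range specific to that compound. Breast cancer cell lines were added as 20 µl suspension and left for 72 h before CellTox Green fluorescence (485/520 nm) and then CellTiter-Glo luminescence, read after 10 min at room temperature. Each reported value is the normalised signal at one concentration, with 0.1 % DMSO set at 100 and a positive kill control at 0 on each plate.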

MFM-223 [20] = assay: as above
Outline: as §2

MDA-MB-231 [21] = assay: as above
Outline: as §2

Hs578T [22] = assay: as above
Outline: as §2

MDA-MB-453 [23] = assay: as above
Outline: as §2

CAL-148 [24] = assay: as above
Outline: as §2

SK-BR-3 [25] = assay: as above
Outline: as §2

MDA-MB-468 [26] = assay: as above
Outline: as §2

HCC1143 [27] = assay: as above
Outline: as §2

HCC1937 [28] = assay: as above
Outline: as §2

MDA-MB-436 [29] = assay: as above
Outline: as §2

BT-474 [30] = assay: as above
Outline: as §2

DU-4475 [31] = assay: as above
Outline: as §2

HCC1599 [32] = assay: as above
Outline: as §2

BT-549 [33] = assay: as above
Outline: as §2

HDQ-P1 [34] = assay: as above
Outline: as §2

CAL-120 [35] = assay: as above
Outline: as §2

CAL-51 [36] = assay: as above
Outline: as §2

MCF-10A = assay: as above
Outline: as §2

`COc1cc2c(N3CCN(C(=O)Nc4ccc(OC(C)C)cc4)CC3)ncnc2cc1OCCCN1CCCCC1` [Tandutinib] (0.1 nM) was tested, and the normalised viability (CAL-85-1 [1]) was 101%, the normalised viability (MFM-223 [2]) was 96.7% and the normalised viability (MDA-MB-231 [3]) was 85.3%. The normalised viability (Hs578T [4]) was 120%, the normalised viability (MDA-MB-453 [5]) was 102% and the normalised viability (CAL-148 [6]) was 107%. The normalised viability (SK-BR-3 [7]) was 106%, the normalised viability (MDA-MB-468 [8]) was 105% and the normalised viability (HCC1143 [9]) was 103%. The normalised viability (HCC1937 [10]) was 67.1%, the normalised viability (MDA-MB-436 [11]) was 104% and the normalised viability (BT-474 [12]) was 114%. It also gave a normalised viability (DU-4475 [13]) of 109%, a normalised viability (HCC1599 [14]) of 98% and a normalised viability (BT-549 [15]) of 111%. For the same compound, the normalised viability (HDQ-P1 [16]) was 116%, the normalised viability (CAL-120 [17]) was 98.7% and the normalised viability (CAL-51 [18]) was 107%. The normalised response (CAL-85-1 [19]) was 101%, the normalised response (MFM-223 [20]) was 105% and the normalised response (MDA-MB-231 [21]) was 104%. The normalised response (Hs578T [22]) was 97.3%, the normalised response (MDA-MB-453 [23]) was 96.1% and the normalised response (CAL-148 [24]) was 102%. It also gave a normalised response (SK-BR-3 [25]) of 96.7%, a normalised response (MDA-MB-468 [26]) of 104% and a normalised response (HCC1143 [27]) of 97.9%. For the same compound, the normalised response (HCC1937 [28]) was 92.9%, the normalised response (MDA-MB-436 [29]) was 97.3% and the normalised response (BT-474 [30]) was 107%. It also gave a normalised response (DU-4475 [31]) of 104%, a normalised response (HCC1599 [32]) of 113% and a normalised response (BT-549 [33]) of 99.8%. The normalised response (HDQ-P1 [34]) was 111%, the normalised response (CAL-120 [35]) was 101% and the normalised response (CAL-51 [36]) was 82.2%. For the same compound, the normalised response (MCF-10A) was 95.5%.
In the case of `C[C@@H](C(=O)O)c1ccc(-c2ccccc2)c(F)c1` [Tarenflurbil] (1 nM), the normalised viability (CAL-85-1 [1]) is reported as 92.7%, the normalised viability (MFM-223 [2]) is reported as 97.5% and the normalised viability (MDA-MB-231 [3]) is reported as 88.8%. The normalised viability (Hs578T [4]) was 101%, the normalised viability (MDA-MB-453 [5]) was 107% and the normalised viability (CAL-148 [6]) was 97.1%. The normalised viability (SK-BR-3 [7]) was 87.9%, the normalised viability (MDA-MB-468 [8]) was 107% and the normalised viability (HCC1143 [9]) was 108%. It also gave a normalised viability (HCC1937 [10]) of 108%, a normalised viability (MDA-MB-436 [11]) of 103% and a normalised viability (BT-474 [12]) of 114%. The normalised viability (DU-4475 [13]) was 111%, the normalised viability (HCC1599 [14]) was 128% and the normalised viability (BT-549 [15]) was 99.2%. It also gave a normalised viability (HDQ-P1 [16]) of 85.4%, a normalised viability (CAL-120 [17]) of 93.7% and a normalised viability (CAL-51 [18]) of 110%. It also gave a normalised response (CAL-85-1 [19]) of 91.3%, a normalised response (MFM-223 [20]) of 93.5% and a normalised response (MDA-MB-231 [21]) of 98.1%. It also gave a normalised response (Hs578T [22]) of 99.1%, a normalised response (MDA-MB-453 [23]) of 103% and a normalised response (CAL-148 [24]) of 98.8%. It also gave a normalised response (SK-BR-3 [25]) of 84.6%, a normalised response (MDA-MB-468 [26]) of 97.1% and a normalised response (HCC1143 [27]) of 94.2%. It also gave a normalised response (HCC1937 [28]) of 92.7%, a normalised response (MDA-MB-436 [29]) of 102% and a normalised response (BT-474 [30]) of 93.8%. For the same compound, the normalised response (DU-4475 [31]) was 95.6%, the normalised response (HCC1599 [32]) was 113% and the normalised response (BT-549 [33]) was 103%. The normalised response (HDQ-P1 [34]) was 96.8%, the normalised response (CAL-120 [35]) was 98.1% and the normalised response (CAL-51 [36]) was 83.3%. For the same compound, the normalised response (MCF-10A) was 85.5%.
In the case of `Cn1nnc2c(C(N)=O)ncn2c1=O` [Temozolomide] (1 nM), the normalised viability (CAL-85-1 [1]) is reported as 103%, the normalised viability (MFM-223 [2]) is reported as 102% and the normalised viability (MDA-MB-231 [3]) is reported as 93%. The normalised viability (Hs578T [4]) was 102%, the normalised viability (MDA-MB-453 [5]) was 98.1% and the normalised viability (CAL-148 [6]) was 103%. The normalised viability (SK-BR-3 [7]) was 126%, the normalised viability (MDA-MB-468 [8]) was 96% and the normalised viability (HCC1143 [9]) was 118%. For the same compound, the normalised viability (HCC1937 [10]) was 113%, the normalised viability (MDA-MB-436 [11]) was 95.7% and the normalised viability (BT-474 [12]) was 86.8%. For the same compound, the normalised viability (DU-4475 [13]) was 128%, the normalised viability (HCC1599 [14]) was 109% and the normalised viability (BT-549 [15]) was 100%. It also gave a normalised viability (HDQ-P1 [16]) of 96.6%, a normalised viability (CAL-120 [17]) of 107% and a normalised viability (CAL-51 [18]) of 95.5%. The normalised response (CAL-85-1 [19]) was 97.5%, the normalised response (MFM-223 [20]) was 94.9% and the normalised response (MDA-MB-231 [21]) was 94.8%. The normalised response (Hs578T [22]) was 99.8%, the normalised response (MDA-MB-453 [23]) was 97.6% and the normalised response (CAL-148 [24]) was 96.2%. It also gave a normalised response (SK-BR-3 [25]) of 98.3%, a normalised response (MDA-MB-468 [26]) of 100% and a normalised response (HCC1143 [27]) of 95%. It also gave a normalised response (HCC1937 [28]) of 99.3%, a normalised response (MDA-MB-436 [29]) of 92.3% and a normalised response (BT-474 [30]) of 95.4%. The normalised response (DU-4475 [31]) was 97.5%, the normalised response (HCC1599 [32]) was 90% and the normalised response (BT-549 [33]) was 104%. It also gave a normalised response (HDQ-P1 [34]) of 96.3%, a normalised response (CAL-120 [35]) of 99.5% and a normalised response (CAL-51 [36]) of 92.3%. It also gave a normalised response (MCF-10A) of 104%.
Compound `CC[C@@H]1C(=O)N(C)c2cnc(Nc3ccc(C(=O)N[C@H]4CC[C@H](N5CCN(CC6CC6)CC5)CC4)cc3OC)nc2N1C(C)C` [Volasertib] (0.1 nM) has a normalised viability (CAL-85-1 [1]) of 88.4%, a normalised viability (MFM-223 [2]) of 92% and a normalised viability (MDA-MB-231 [3]) of 110%. For the same compound, the normalised viability (Hs578T [4]) was 102%, the normalised viability (MDA-MB-453 [5]) was 101% and the normalised viability (CAL-148 [6]) was 110%. The normalised viability (SK-BR-3 [7]) was 118%, the normalised viability (MDA-MB-468 [8]) was 121% and the normalised viability (HCC1143 [9]) was 96.3%. It also gave a normalised viability (HCC1937 [10]) of 101%, a normalised viability (MDA-MB-436 [11]) of 117% and a normalised viability (BT-474 [12]) of 107%. For the same compound, the normalised viability (DU-4475 [13]) was 103%, the normalised viability (HCC1599 [14]) was 88.5% and the normalised viability (BT-549 [15]) was 108%. It also gave a normalised viability (HDQ-P1 [16]) of 94.3%, a normalised viability (CAL-120 [17]) of 92.4% and a normalised viability (CAL-51 [18]) of 116%. The normalised response (CAL-85-1 [19]) was 102%, the normalised response (MFM-223 [20]) was 96.2% and the normalised response (MDA-MB-231 [21]) was 100%. It also gave a normalised response (Hs578T [22]) of 105%, a normalised response (MDA-MB-453 [23]) of 108% and a normalised response (CAL-148 [24]) of 93%. For the same compound, the normalised response (SK-BR-3 [25]) was 103%, the normalised response (MDA-MB-468 [26]) was 97.3% and the normalised response (HCC1143 [27]) was 90.6%. The normalised response (HCC1937 [28]) was 98.9%, the normalised response (MDA-MB-436 [29]) was 80.4% and the normalised response (BT-474 [30]) was 97.7%. It also gave a normalised response (DU-4475 [31]) of 95.2%, a normalised response (HCC1599 [32]) of 96.6% and a normalised response (BT-549 [33]) of 104%. It also gave a normalised response (HDQ-P1 [34]) of 93.2%, a normalised response (CAL-120 [35]) of 98.5% and a normalised response (CAL-51 [36]) of 111%. For the same compound, the normalised response (MCF-10A) was 88.1%.
